Paper PMC5007619 (Biochemistry, 2016)

Legend:
p300 = p300 (Homo sapiens, UniProt Q09472); experiment: […]acetyl-CoA nucleosome acetyltransferase assay; format: biochemical
CBP = CBP (Homo sapiens, UniProt Q92793); experiment: H3K18ac Western blot of nucleosome acetylation by purified CBP; format: biochemical
Chain of CBP (Q92793 2-2442): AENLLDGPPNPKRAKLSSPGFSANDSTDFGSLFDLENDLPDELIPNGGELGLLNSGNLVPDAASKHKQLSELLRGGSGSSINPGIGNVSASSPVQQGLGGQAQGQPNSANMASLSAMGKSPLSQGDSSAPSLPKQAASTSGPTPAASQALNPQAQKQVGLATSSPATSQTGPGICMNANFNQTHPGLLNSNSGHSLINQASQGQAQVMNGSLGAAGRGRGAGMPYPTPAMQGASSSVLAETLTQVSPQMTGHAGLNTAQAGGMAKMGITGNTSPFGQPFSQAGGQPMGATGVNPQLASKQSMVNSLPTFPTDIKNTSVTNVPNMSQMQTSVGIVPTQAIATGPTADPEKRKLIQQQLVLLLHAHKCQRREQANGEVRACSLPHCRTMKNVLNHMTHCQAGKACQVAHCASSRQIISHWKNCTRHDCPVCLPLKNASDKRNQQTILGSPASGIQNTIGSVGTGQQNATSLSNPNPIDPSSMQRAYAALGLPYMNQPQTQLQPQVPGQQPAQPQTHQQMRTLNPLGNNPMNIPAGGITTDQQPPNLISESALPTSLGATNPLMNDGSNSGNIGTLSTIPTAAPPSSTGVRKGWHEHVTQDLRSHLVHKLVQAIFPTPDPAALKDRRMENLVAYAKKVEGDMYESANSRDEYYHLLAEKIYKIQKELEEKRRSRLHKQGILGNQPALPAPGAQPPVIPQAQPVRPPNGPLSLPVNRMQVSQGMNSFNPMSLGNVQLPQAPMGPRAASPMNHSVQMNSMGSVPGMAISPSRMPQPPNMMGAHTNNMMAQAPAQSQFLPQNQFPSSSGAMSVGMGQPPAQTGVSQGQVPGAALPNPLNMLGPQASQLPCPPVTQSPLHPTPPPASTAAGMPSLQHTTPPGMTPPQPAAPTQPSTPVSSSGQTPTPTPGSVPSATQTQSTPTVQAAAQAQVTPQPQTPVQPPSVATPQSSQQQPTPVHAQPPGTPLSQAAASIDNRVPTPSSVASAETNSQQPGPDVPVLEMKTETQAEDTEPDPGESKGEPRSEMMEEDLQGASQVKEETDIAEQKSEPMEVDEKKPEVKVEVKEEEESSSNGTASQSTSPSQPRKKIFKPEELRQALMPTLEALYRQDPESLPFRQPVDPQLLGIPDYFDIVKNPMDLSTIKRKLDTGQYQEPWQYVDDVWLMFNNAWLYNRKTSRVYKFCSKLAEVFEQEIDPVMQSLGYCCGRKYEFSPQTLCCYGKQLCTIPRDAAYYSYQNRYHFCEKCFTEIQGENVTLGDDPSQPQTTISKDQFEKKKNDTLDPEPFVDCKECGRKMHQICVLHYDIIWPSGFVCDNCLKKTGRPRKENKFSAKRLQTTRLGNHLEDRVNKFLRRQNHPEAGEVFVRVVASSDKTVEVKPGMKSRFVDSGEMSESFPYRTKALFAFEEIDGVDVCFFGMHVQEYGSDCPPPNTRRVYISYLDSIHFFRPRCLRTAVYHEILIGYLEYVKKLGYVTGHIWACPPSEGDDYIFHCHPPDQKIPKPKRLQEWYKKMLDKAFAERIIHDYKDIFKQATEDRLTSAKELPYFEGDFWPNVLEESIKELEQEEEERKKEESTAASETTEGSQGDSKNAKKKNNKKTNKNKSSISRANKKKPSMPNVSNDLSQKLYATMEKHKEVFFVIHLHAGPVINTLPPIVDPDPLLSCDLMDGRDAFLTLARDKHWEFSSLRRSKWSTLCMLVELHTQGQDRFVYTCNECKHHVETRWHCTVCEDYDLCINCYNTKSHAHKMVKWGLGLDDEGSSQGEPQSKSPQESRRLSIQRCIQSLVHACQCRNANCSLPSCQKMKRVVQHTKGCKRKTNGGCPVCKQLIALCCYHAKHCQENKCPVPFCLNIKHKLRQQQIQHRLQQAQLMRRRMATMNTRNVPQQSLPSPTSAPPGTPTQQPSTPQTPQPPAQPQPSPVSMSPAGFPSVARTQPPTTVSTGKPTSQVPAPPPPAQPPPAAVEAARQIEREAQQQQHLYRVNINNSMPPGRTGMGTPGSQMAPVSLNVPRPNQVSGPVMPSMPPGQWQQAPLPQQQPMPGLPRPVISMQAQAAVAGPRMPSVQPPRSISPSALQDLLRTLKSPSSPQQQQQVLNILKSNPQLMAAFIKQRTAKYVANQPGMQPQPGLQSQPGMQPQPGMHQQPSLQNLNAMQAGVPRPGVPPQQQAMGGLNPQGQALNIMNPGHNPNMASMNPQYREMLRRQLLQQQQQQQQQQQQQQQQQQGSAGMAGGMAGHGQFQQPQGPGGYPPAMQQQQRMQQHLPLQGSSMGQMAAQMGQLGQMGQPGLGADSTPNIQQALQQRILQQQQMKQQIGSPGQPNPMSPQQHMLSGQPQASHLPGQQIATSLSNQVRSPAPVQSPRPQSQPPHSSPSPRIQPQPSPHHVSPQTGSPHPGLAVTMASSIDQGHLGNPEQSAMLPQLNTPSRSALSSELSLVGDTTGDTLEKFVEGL

Chain of p300 (Q09472 2-2414): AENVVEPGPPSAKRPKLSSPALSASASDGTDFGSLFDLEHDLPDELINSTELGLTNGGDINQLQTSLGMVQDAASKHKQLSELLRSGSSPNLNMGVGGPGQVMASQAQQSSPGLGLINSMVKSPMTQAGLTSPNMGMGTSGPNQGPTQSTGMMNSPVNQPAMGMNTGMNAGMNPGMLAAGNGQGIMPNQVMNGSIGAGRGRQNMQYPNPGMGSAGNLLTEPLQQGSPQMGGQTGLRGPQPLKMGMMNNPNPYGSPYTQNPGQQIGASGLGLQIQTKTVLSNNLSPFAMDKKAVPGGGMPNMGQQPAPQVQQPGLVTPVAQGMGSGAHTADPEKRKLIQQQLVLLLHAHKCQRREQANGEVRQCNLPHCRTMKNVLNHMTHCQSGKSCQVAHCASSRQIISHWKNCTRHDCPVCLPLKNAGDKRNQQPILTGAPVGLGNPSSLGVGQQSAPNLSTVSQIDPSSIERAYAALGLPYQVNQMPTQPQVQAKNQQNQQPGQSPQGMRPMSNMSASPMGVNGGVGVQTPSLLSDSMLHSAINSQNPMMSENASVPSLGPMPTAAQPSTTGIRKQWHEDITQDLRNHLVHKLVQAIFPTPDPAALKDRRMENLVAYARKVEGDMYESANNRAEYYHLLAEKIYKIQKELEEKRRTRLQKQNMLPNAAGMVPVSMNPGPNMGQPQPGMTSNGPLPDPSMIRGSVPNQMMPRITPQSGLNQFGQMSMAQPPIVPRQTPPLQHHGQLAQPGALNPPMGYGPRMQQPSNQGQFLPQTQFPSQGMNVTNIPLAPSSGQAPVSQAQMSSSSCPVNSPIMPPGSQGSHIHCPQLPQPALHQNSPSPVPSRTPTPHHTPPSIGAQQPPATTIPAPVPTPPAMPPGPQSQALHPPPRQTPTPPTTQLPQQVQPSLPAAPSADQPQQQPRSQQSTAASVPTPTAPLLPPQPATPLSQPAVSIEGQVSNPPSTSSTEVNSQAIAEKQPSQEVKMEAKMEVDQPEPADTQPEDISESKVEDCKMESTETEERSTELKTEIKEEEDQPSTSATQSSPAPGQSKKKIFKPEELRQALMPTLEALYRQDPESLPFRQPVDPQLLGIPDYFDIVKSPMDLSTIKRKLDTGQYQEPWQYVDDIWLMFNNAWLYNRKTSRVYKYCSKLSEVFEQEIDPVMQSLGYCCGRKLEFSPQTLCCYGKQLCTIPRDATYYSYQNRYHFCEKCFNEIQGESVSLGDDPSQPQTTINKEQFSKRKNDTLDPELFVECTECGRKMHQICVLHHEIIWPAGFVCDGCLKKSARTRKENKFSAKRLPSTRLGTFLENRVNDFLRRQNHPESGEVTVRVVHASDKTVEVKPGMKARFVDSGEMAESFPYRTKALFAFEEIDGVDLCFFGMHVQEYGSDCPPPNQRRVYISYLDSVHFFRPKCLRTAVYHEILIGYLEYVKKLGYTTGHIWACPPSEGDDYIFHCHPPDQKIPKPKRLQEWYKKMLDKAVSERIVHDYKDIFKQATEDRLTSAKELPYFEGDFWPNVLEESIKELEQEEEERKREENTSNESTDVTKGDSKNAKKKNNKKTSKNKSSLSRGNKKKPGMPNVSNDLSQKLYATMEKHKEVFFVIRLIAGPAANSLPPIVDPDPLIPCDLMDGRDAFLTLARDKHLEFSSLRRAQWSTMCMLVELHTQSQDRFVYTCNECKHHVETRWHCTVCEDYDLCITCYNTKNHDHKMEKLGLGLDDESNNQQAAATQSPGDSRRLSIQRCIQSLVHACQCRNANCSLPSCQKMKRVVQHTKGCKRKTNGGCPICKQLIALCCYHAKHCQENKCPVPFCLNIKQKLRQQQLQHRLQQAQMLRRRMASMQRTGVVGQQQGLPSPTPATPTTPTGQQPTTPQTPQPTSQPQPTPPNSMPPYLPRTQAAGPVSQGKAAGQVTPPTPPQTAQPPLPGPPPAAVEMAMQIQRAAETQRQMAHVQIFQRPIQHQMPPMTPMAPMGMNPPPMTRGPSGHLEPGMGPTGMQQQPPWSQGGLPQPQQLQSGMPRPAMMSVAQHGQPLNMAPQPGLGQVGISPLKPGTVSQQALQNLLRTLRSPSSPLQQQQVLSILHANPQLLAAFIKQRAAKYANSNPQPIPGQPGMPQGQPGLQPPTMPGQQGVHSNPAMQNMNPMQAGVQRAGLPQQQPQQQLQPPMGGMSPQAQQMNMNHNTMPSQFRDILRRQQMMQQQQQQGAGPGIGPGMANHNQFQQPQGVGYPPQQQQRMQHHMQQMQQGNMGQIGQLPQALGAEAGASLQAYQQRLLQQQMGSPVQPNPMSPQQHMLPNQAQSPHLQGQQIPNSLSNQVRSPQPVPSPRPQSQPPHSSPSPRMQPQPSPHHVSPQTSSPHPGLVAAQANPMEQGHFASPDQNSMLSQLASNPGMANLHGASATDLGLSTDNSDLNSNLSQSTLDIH

CCC(=O)N1CCOc2c(cc(-c3ccc(OC)c(OC)c3)cc2OC[C@H]2CCCN(C)C2)C1 [I-CBP112, 1-[7-(3,4-dimethoxyphenyl)-9-{[(3S)-1-methylpiperidin-3-yl]-methoxy}-2,3,4,5-tetrahydro-1,4-benzoxazepin-4-yl]propan-1-one]
EC50 (p300): 11 ± 3 µM
EC50 (CBP): ~2 µM
